Experimental data from US8530493B2, “Indolopyridines as Eg5 kinesin modulators” (4SC AG, priority 2006, dated 2013).

Each molecule was assayed on RKO p21 uninduced (proliferating) colon adenocarcinoma cells (assay: Alamar Blue cell viability assay, RKO p21 uninduced (proliferating)). Conditions: Homo sapiens, Table B3, anti-proliferative/cytotoxic activity, 72 hours, read-out: −log EC50 RKO p21 uninduced (proliferating) (converted).
Type: cell-based
How it was run: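 Viability read by Alamar Blue fluorescence (ex 544, em 590 nm), normalised to untreated wells, after 72 h, 37° C, 5% CO2 compound exposure in triplicate. Cells were uninduced (no Ponasterone A), proliferating RKO colon carcinoma p27 or p21 subclones in DMEM with 10% FCS; values are −log EC50 (mol/l).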
With `C=CCNCCN1C(=O)N2[C@H](c3cccc(O)c3)c3[nH]c4cc(F)c(OC)cc4c3C[C@@]2(C)C1=O` (racemic) [Example 254, (3aSR,10RS)-2-(2-Allylamino-ethyl)-7-fluoro-10-(3-hydroxy-phenyl)-6-methoxy-3a-methyl-3a,4,9,10-tetrahydro-2,9,10a-triaza-cyclopenta[b]fluorene-1,3-dione] the EC50 was 0.0398 to 0.251 µM.
In the case of `COc1cc2c3c([nH]c2cc1F)[C@@H](c1cccc(O)c1)N1C(=O)N(CCN(C)C)C(=O)[C@]1(C)C3` (racemic) [Example 255, (3aSR,10RS)-2-(2-Dimethylamino-ethyl)-7-fluoro-10-(3-hydroxy-phenyl)-6-methoxy-3a-methyl-3a,4,9,10-tetrahydro-2,9,10a-triaza-cyclopenta[b]fluorene-1,3-dione], the EC50 is reported as 0.0398 to 0.251 µM.
With `COc1cc2c3c([nH]c2cc1F)[C@@H](c1cccc(O)c1)N1C(=O)N(CCNC(C)(C)C)C(=O)[C@]1(C)C3` (racemic) [Example 256, (3aSR,10RS)-2-(2-tert-Butylamino-ethyl)-7-fluoro-10-(3-hydroxy-phenyl)-6-methoxy-3a-methyl-3a,4,9,10-tetrahydro-2,9,10a-triaza-cyclopenta[b]fluorene-1,3-dione] the EC50 was ≤ 0.0398 µM.
Molecule `CCN(C)CCN1C(=O)N2[C@H](c3cccc(O)c3)c3[nH]c4cc(F)c(OC)cc4c3C[C@@]2(C)C1=O` (racemic) [Example 257, (3aSR,10RS)-2-[2-(Ethyl-methyl-amino)-ethyl]-7-fluoro-10-(3-hydroxy-phenyl)-6-methoxy-3a-methyl-3a,4,9,10-tetrahydro-2,9,10a-triaza-cyclopenta[b]fluorene-1,3-dione] has an EC50 of 0.0398 to 0.251 µM.
`CCN(CC)CCN1C(=O)N2[C@H](c3cccc(O)c3)c3[nH]c4cc(F)c(OC)cc4c3C[C@@]2(C)C1=O` (racemic) [Example 258, (3aSR,10RS)-2-(2-Diethylamino-ethyl)-7-fluoro-10-(3-hydroxy-phenyl)-6-methoxy-3a-methyl-3a,4,9,10-tetrahydro-2,9,10a-triaza-cyclopenta[b]fluorene-1,3-dione] gave an EC50 of 0.0398 to 0.251 µM.
`COc1cc2c3c([nH]c2cc1F)[C@@H](c1cccc(O)c1)N1C(=O)N(CCN(C)C(C)C)C(=O)[C@]1(C)C3` (racemic) [Example 259, (3aSR,10RS)-7-Fluoro-10-(3-hydroyx-phenyl)-2-[2-(isopropyl-methyl-amino)-ethyl]-6-methoxy-3a-methyl-3a,4,9,10-tetrahydro-2,9,10a-triaza-cyclopenta[b]fluorene-1,3-dione] gave an EC50 of 0.0398 to 0.251 µM.
`COc1cc2c3c([nH]c2cc1F)[C@@H](c1cccc(O)c1)N1C(=O)N(CCN2CCCC2)C(=O)[C@]1(C)C3` (racemic) [Example 261, (3aSR,10RS)-7-Fluoro-10-(3-hydroxy-phenyl)-6-methoxy-3a-methyl-2-(2-pyrrolidin-1-yl-ethyl)-3a,4,9,10-tetrahydro-2,9,10a-triaza-cyclopenta[b]fluorene-1,3-dione] gave an EC50 of 0.0398 to 0.251 µM.
Work on `COc1cc2c3c([nH]c2cc1F)[C@@H](c1cccc(O)c1)N1C(=O)N(CCN2CC=CC2)C(=O)[C@]1(C)C3` (racemic) [Example 262, (3aSR,10RS)-2-[2-(2,5-Dihydro-pyrrol-1-yl)-ethyl]-7-fluoro-10-(3-hydroxy-phenyl)-6-methoxy-3a-methyl-3a,4,9,10-tetrahydro-2,9,10a-triaza-cyclopenta[b]fluorene-1,3-dione] yielded an EC50 of 0.0398 to 0.251 µM.
`COc1cc2c3c([nH]c2cc1F)[C@@H](c1cccc(O)c1)N1C(=O)N(CCN2CCCCC2)C(=O)[C@]1(C)C3` (racemic) [Example 263, (3aSR,10RS)-7-Fluoro-10-(3-hydroxy-phenyl)-6-methoxy-3a-methyl-2-(2-piperidin-1-yl-ethyl)-3a,4,9,10-tetrahydro-2,9,10a-triaza-cyclopenta[b]fluorene-1,3-dione] showed an EC50 of 0.0398 to 0.251 µM.
In the case of `COc1cc2c3c([nH]c2cc1F)[C@@H](c1cccc(O)c1)N1C(=O)N(CCN2CCC(C)CC2)C(=O)[C@]1(C)C3` (racemic) [Example 264, (3aSR,10RS)-7-Fluoro-10-(3-hydroxy-phenyl)-6-methoxy-3a-methyl-2-[2-(4-methyl-piperidin-1-yl)-ethyl]-3a,4,9,10-tetrahydro-2,9,10a-triaza-cyclopenta[b]fluorene-1,3-dione], the EC50 is reported as 0.0398 to 0.251 µM.
`COc1cc2c3c([nH]c2cc1F)[C@@H](c1cccc(O)c1)N1C(=O)N(CCN2CC=CCC2)C(=O)[C@]1(C)C3` (racemic) [Example 265, (3aSR,10RS)-2-[2-(3,6-Dihydro-2H-pyridin-1-yl)-ethyl]-7-fluoro-10-(3-hydroxy-phenyl)-6-methoxy-3a-methyl-3a,4,9,10-tetrahydro-2,9,10a-triaza-cyclopenta[b]fluorene-1,3-dione] was tested, and the EC50 was 0.0398 to 0.251 µM.
With `COc1cc2c3c([nH]c2cc1F)[C@@H](c1cccc(O)c1)N1C(=O)N(CCN2CCN(C)CC2)C(=O)[C@]1(C)C3` (racemic) [Example 266, (3aSR,10RS)-7-Fluoro-10-(3-hydroxy-phenyl)-6-methoxy-3a-methyl-2-[2-(4-methyl-piperazin-1-yl)-ethyl]-3a,4,9,10-tetrahydro-2,9,10a-triaza-cyclopenta[b]fluorene-1,3-dione] the EC50 was 0.0398 to 0.251 µM.
In the case of `CC(C)NCCN1C(=O)N2[C@H](c3cccc(O)c3)c3[nH]c4ccc(OC(F)F)cc4c3C[C@@]2(C)C1=O` (racemic) [Example 268, (3aSR,10RS)-6-(1,1-Difluoro-methoxy)-10-(3-hydroxy-phenyl)-2-(2-isopropylamino-ethyl)-3a-methyl-3a,4,9,10-tetrahydro-2,9,10a-triaza-cyclopenta[b]fluorene-1,3-dione], the EC50 is reported as ≤ 0.0398 µM.
In the case of `CC(C)CNCCN1C(=O)N2[C@H](c3cccc(O)c3)c3[nH]c4ccc(OC(F)F)cc4c3C[C@@]2(C)C1=O` (racemic) [Example 269, (3aSR,10RS)-6-(1,1-Difluoro-methoxy)-10-(3-hydroxy-phenyl)-2-(2-isobutylamino-ethyl)-3a-methyl-3a,4,9,10-tetrahydro-2,9,10a-triaza-cyclopenta[b]fluorene-1,3-dione], the EC50 is reported as ≤ 0.0398 µM.
`C[C@@]12Cc3c([nH]c4ccc(OC(F)F)cc34)[C@@H](c3cccc(O)c3)N1C(=O)N(CCNCC1CC1)C2=O` (racemic) [Example 270, (3aSR,10RS)-2-[2-(Cyclopropylmethyl-amino)-ethyl]-6-(1,1-difluoro-methoxy)-10-(3-hydroxy-phenyl)-3a-methyl-3a,4,9,10-tetrahydro-2,9,10a-triaza-cyclopenta[b]fluorene-1,3-dione] was tested, and the EC50 was ≤ 0.0398 µM.
In the case of `COCCNCCN1C(=O)N2[C@H](c3cccc(O)c3)c3[nH]c4ccc(OC(F)F)cc4c3C[C@@]2(C)C1=O` (racemic) [Example 271, (3aSR,10RS)-6-(1,1-Difluoro-methoxy)-10-(3-hydroxy-phenyl)-2-[2-(2-methoxy-ethylamino)-ethyl]-3a-methyl-3a,4,9,10-tetrahydro-2,9,10a-triaza-cyclopenta[b]fluorene-1,3-dione], the EC50 is reported as ≤ 0.0398 µM.
`C[C@@]12Cc3c([nH]c4ccc(OC(F)F)cc34)[C@@H](c3cccc(O)c3)N1C(=O)N(CCNC1CCC1)C2=O` (racemic) [Example 272, (3aSR,10RS)-2-(2-Cyclobutylamino-ethyl)-6-(1,1-difluoro-methoxy)-10-(3-hydroxy-phenyl)-3a-methyl-3a,4,9,10-tetrahydro-2,9,10a-triaza-cyclopenta[b]fluorene-1,3-dione] was tested, and the EC50 was ≤ 0.0398 µM.
`CC(C)(C)NCCN1C(=O)N2[C@H](c3cccc(O)c3)c3[nH]c4ccc(OC(F)F)cc4c3C[C@@]2(C)C1=O` (racemic) [Example 273, (3aSR,10RS)-2-(2-tert-Butylamino-ethyl)-6-(1,1-difluoro-methoxy)-10-(3-hydroxy-phenyl)-3a-methyl-3a,4,9,10-tetrahydro-2,9,10a-triaza-cyclopenta[b]fluorene-1,3-dione] was tested, and the EC50 was ≤ 0.0398 µM.
For `C=CCNCCN1C(=O)N2[C@H](c3cccc(O)c3)c3[nH]c4ccc(OC(F)F)cc4c3C[C@@]2(C)C1=O` (racemic) [Example 274, (3aSR,10RS)-2-(2-Allylamino-ethyl)-6-(1,1-difluoro-methoxy)-10-(3-hydroxy-phenyl)-3a-methyl-3a,4,9,10-tetrahydro-2,9,10a-triaza-cyclopenta[b]fluorene-1,3-dione], the EC50 was ≤ 0.0398 µM.
With `CCN(C)CCN1C(=O)N2[C@H](c3cccc(O)c3)c3[nH]c4ccc(OC(F)F)cc4c3C[C@@]2(C)C1=O` (racemic) [Example 275, (3aSR,10RS)-6-(1,1-Difluoro-methoxy)-2-[2-(ethyl-methyl-amino)-ethyl]-10-(3-hydroxy-phenyl)-3a-methyl-3a,4,9,10-tetrahydro-2,9,10a-triaza-cyclopenta[b]fluorene-1,3-dione] the EC50 was ≤ 0.0398 µM.
In the case of `CCN(CC)CCN1C(=O)N2[C@H](c3cccc(O)c3)c3[nH]c4ccc(OC(F)F)cc4c3C[C@@]2(C)C1=O` (racemic) [Example 276, (3aSR,10RS)-2-(2-Diethylamino-ethyl)-6-(1,1-difluoro-methoxy)-10-(3-hydroxy-phenyl)-3a-methyl-3a,4,9,10-tetrahydro-2,9,10a-triaza-cyclopenta[b]fluorene-1,3-dione], the EC50 is reported as ≤ 0.0398 µM.
In the case of `CCN(CCO)CCN1C(=O)N2[C@H](c3cccc(O)c3)c3[nH]c4ccc(OC(F)F)cc4c3C[C@@]2(C)C1=O` (racemic) [Example 277, (3aSR,10RS)-6-(1,1-Difluoro-methoxy)-2-{2-[ethyl-(2-hydroxy-ethyl)-amino]-ethyl}-10-(3-hydroxy-phenyl)-3a-methyl-3a,4,9,10-tetrahydro-2,9,10a-triaza-cyclopenta[b]fluorene-1,3-dione], the EC50 is reported as 0.0398 to 0.251 µM.
With `CC(C)N(C)CCN1C(=O)N2[C@H](c3cccc(O)c3)c3[nH]c4ccc(OC(F)F)cc4c3C[C@@]2(C)C1=O` (racemic) [Example 278, (3aSR,10RS)-6-(1,1-Difluoro-methoxy)-10-(3-hydroxy-phenyl)-2-[2-(isopropyl-methyl-amino)-ethyl]-3a-methyl-3a,4,9,10-tetrahydro-2,9,10a-triaza-cyclopenta[b]fluorene-1,3-dione] the EC50 was ≤ 0.0398 µM.
